Source: US20080152765A1, “Coated Granular Formulations” (priority 2005, published 2008)
Several values for one entry are separate records, joined by “and”; a condition that tells them apart may be missing. Equal values may be shown once.

Columns and labels:
Format in all cases: physicochemical
[1] = Stability of the protected SAMe product relative to the starting material, 5 days at 53° C.
[2] = Increase of hygroscopicity in % by weight, SAMe, 75% RH 40° C.
[3] = Hygroscopicity of starting material SAMe, exposure at 75% RH and 20° C.; conditions: for weight (increase in weight relative to time zero): T = 0 2.00 g
Protocol: The hygroscopicity of the starting material SAMe (s.m.) was determined as increase in weight, relative to the time zero, the relative content being given in p.a.: […]

[4] = Stability of the protected NADH product relative to the starting material, 5 days at 53° C.
[5] = Hygroscopicity and photosensitivity of starting material NADH, exposure to light, RH 75%, 20° C.; conditions: for weight (increase in weight relative to time zero): T = 0 2.00 g
Protocol: The hygroscopicity and photosensitivity of the starting material NADH (s.m.) was determined as increase in weight, relative to time zero, the relative content being given in p.a.: […]

[6] = 5 days at 53° C., listed as s.m.
[7] = 1 day exposure to light, RH 75%, 20° C.
[8] = 2 days exposure to light, RH 75%, 20° C.
[9] = 3 days exposure to light, RH 75%, 20° C.
[10] = 4 days exposure to light, RH 75%, 20° C.

C[S+](CC[C@H](N)C(=O)O)C[C@H]1O[C@@H](n2cnc3c(N)ncnc32)[C@H](O)[C@@H]1O (stereo partly shown) [SAMe, S-adenosylmethionine]
% water (KF) ([1]; 5 days at 53° C.): 1.5%
% Ionic SAMe content [1, 6]: 48.5% and 47.3%
% MTA [1, 6]: 3.45% and 3.87%
% adenine + adenosine [1, 6]: 3.35% and 3.54%
% Ionic SAMe content ([1]; T = 0, listed as s.m): 52.4%
% MTA ([1]; T = 0, listed as s.m): 0.3%
% adenine + adenosine ([1]; T = 0, listed as s.m): 0.6%
% water (KF) ([1]; T = 0, listed as s.m): 1.6%
% Ionic SAMe content ([1]; T = 0, listed as s.m.): 52.1%
% MTA ([1]; T = 0, listed as s.m.): 0.6%
% adenine + adenosine ([1]; T = 0, listed as s.m.): 0.4%
% water (KF) ([1]; T = 0, listed as s.m.): 1.5%
Increase of hygroscopicity in % by weight ([2]; 1 day at 75% RH and 40° C.): 50%
Increase of hygroscopicity in % by weight ([2]; T = 0): 0.00 % by weight
hygroscopicity and stability, in words ([3]; 75% RH and 20° C., 4 days): high hygroscopicity and high instability
% MTA ([3]; 1 day at 75% RH and 20° C.): 1.5%
% adenine + adenosine ([3]; 1 day at 75% RH and 20° C.): 1.3%
% ionic SAMe ([3]; 1 day at 75% RH and 20° C.): 51.1%
% water (KF) ([3]; 1 day at 75% RH and 20° C.): 2.1%
weight (increase in weight relative to time zero) ([3]; 1 day at 75% RH and 20° C.): 2.40 g
% MTA ([3]; 2 days at 75% RH and 20° C.): 1.9%
% adenine + adenosine ([3]; 2 days at 75% RH and 20° C.): 2.4%
% ionic SAMe ([3]; 2 days at 75% RH and 20° C.): 50.3%
% water (KF) ([3]; 2 days at 75% RH and 20° C.): 2.9%
weight (increase in weight relative to time zero) ([3]; 2 days at 75% RH and 20° C.): 2.90 g
% MTA ([3]; 3 days at 75% RH and 20° C.): 2.4%
% adenine + adenosine ([3]; 3 days at 75% RH and 20° C.): 2.9%
% ionic SAMe ([3]; 3 days at 75% RH and 20° C.): 47.3%
% water (KF) ([3]; 3 days at 75% RH and 20° C.): 3.4%
weight (increase in weight relative to time zero) ([3]; 3 days at 75% RH and 20° C.): 3.50 g
% MTA ([3]; 4 days at 75% RH and 20° C.): 3.0%
% adenine + adenosine ([3]; 4 days at 75% RH and 20° C.): 3.2%
% ionic SAMe ([3]; 4 days at 75% RH and 20° C.): 45.1%
% water (KF) ([3]; 4 days at 75% RH and 20° C.): 3.8%
weight (increase in weight relative to time zero) ([3]; 4 days at 75% RH and 20° C.): 4.50 g
% MTA ([3]; T(0)): T(0) = 0.6%
% adenine + adenosine ([3]; T(0)): T(0) = 0.4%
% ionic SAMe ([3]; T(0)): T(0) = 52.1%
% water (KF) ([3]; T(0)): T(0) = 1.5%

NC(=O)C1=CN([C@@H]2O[C@H](COP(=O)(O)OP(=O)(O)OC[C@H]3O[C@@H](n4cnc5c(N)ncnc54)[C@H](O)[C@@H]3O)[C@@H](O)[C@H]2O)C=CC1 [NADH]
% NAD+ content ([4]; 5 days at 53° C.): 2.3%
% NADH content ([4]; 5 days at 53° C.): 98.4%
% water (KF) ([4]; 5 days at 53° C.): 1.5%
% NAD+ content ([4]; T = 0): 0.5%
% NADH content ([4]; T = 0): 100.1%
% water (KF) ([4]; T = 0): 1.3%
NAD+ impurity [5, 7]: 1.21%
NADH content [5, 7]: 97.9%
Water (KF) [5, 7]: 1.82%
weight (increase in weight relative to time zero) [5, 7]: 2.20 g
NAD+ impurity [5, 8]: 1.55%
NADH content [5, 8]: 97.3%
Water (KF) [5, 8]: 1.91%
weight (increase in weight relative to time zero) [5, 8]: 2.40 g
NAD+ impurity [5, 9]: 2.89%
NADH content [5, 9]: 96.0%
Water (KF) [5, 9]: 2.44%
weight (increase in weight relative to time zero) [5, 9]: 2.50 g
NAD+ impurity [5, 10]: 3.45%
NADH content [5, 10]: 95.5%
Water (KF) [5, 10]: 2.86%
weight (increase in weight relative to time zero) [5, 10]: 2.80 g
NAD+ impurity ([5]; T = 0): 0.55%
NADH content ([5]; T = 0): 98.4%
Water (KF) ([5]; T = 0): 1.2%
